Assay results reported in patent publication US20230355713A1, “PEPTIDE FOR THERAPEUTIC APPLICATIONS IN THE DERMATOLOGICAL FIELD” (Dompe' Farmaceutici S.P.A., priority 2020, published 2023).
Where no end group is shown, it is not given here.

How the values were obtained:
[1] = test system: primary cell cultures of normal human melanocytes; assay: In vitro melanin production by melanocytes (melanin content by ELISA); assay type: cell-based; details: concentration at which 50% of the maximum concentration of cellular melanin is observed; cultured for one week
Description: The in vitro ability of the NGF 1-14 peptide and the NGF whole protein to activate melanin production by melanocytes was compared.
According to already established protocols, primary cell cultures of normal human melanocytes were seeded in Petri dishes and cultured for one week, with and without the presence of the NGF 1-14 peptide at various concentrations, using the whole human NGF protein as a control. The melanin content was measured with the ELISA enzyme immunoassay. The maximum melanin concentration, measured as the difference from baseline, was experimentally determined from the plateau of the dose response curves of NGF and NGF 1-14. The EC50 represents the concentration of NGF 1-14 or NGF at which 50% of the maximum concentration of cellular melanin is observed.

[2] = test system: mouse model of human vitiligo; assay: In vivo efficacy test: skin re-pigmentation, depigmentation score 0 to 5; set-up: species or system SCF transgenic mice of the C57BL6 line; details: 200 μg/mL in base cream, topical, twice a day for 8 weeks; 0 to 5 point scale
Description: The in vivo capacity of skin re-pigmentation by the NGF 1-14 peptide and the whole NGF protein was compared.
The study was conducted on a mouse model of human vitiligo.
SCF transgenic mice of the C57BL6 line, treated for 10-12 weeks to induce vitiligo using CD8+T cells specific for melanocytes, were shaved twice a week in the dorsal part affected by depigmentation, with an electric razor, in an area of about 6 cm×6 cm. The animals were divided into two groups of equal numbers (8 animals per group). On a first group of animals, topical administration was carried out in two sites of the shaved area spaced from both sides of the midline, applying on the left a topical preparation containing 200 μg/mL of NGF peptide in a base cream vehicle, while on the right side only the base cream (control) was applied. The same procedure was repeated on the second group of animals, applying on the left a topical preparation containing 200 μg/mL of NGF 1-14 peptide in a base cream vehicle, while on the right side only the base cream (control) was applied.
The application was spread evenly twice a day for 8 weeks, in the central part of the shaved area, on a surface of about 2 cm×2 cm. Starting from the second day and thereafter, the areas of interest were cleaned with a cloth before applying the preparations. The animals were kept away from possible sources of ultraviolet light irradiation.
Quantification of epidermal depigmentation was performed using a subjective scoring system based on a 0 to 5 point scale, where 5 represents the most severe degree of depigmentation, reported in the literature (Rebecca L. et al., Curr Protoc Immunol. (2019), 124(1)—February). A trained researcher blinded to the details of the experiment performed the evaluation at the treated site.

sensory nerve fibers = assay: Histological test: density of sensory nerve fibers in skin biopsies (NF200, TRPV1 antibodies); assay type: in vivo, SCF transgenic mice of the C57BL6 line; details: 200 μg/mL in base cream, after the 8-week treatment of example 2a
From the text: The in vivo ability of the NGF 1-14 peptide and the NGF whole protein to increase the density of nerve endings was compared.
After the treatment described in example 2a, the animals were sacrificed and skin samples (3 biopsies per point) were taken both from the area treated with NGF1-14 or with NGF, and from the untreated area, for each animal, for the purpose of histological examination.
To evaluate the density of sensory nerve fibers, antibodies directed against the neurofilament protein 200 (NF200; Sigma) specific for large diameter fibers, and antibodies directed against the transient receptor potential vanilloid 1 (TRPV1, Neuromics) were used to measure peripheral sensory fibers (small diameter).

Sprague-Dawley rats = assay: In vivo tolerability test: plantar thermal hyperalgesia test (Hargreaves apparatus), paw retraction latency; details: for hyperalgesic activity compared to the saline group (paw retraction latency): 1, 3, 5 and 24 h after injection, P<0.001
Description: The in vivo intra-implant tolerability of the NGF 1-14 peptide was evaluated in comparison with the whole protein NGF.
Tyrode's isotonic solution containing the rh-NGF protein in concentrations from 5 to 20 μg/mL and the vehicle was administered intra-implantally in the dorsal region of Sprague-Dawley rats (10 animals for each concentration), in a volume of 0.05 mL using a very fine syringe.
Tyrode's isotonic solution containing the murine-NGF protein in concentrations from 5 to 20 μg/mL and the vehicle was administered intra-implantally in the dorsal region of Sprague-Dawley rats (10 animals for each concentration), in a volume of 0.05 mL using a very fine syringe.
Tyrode's isotonic solution containing the NGF 1-14 peptide in concentrations from 5 to 20 μg/mL and the vehicle was administered intra-implantally in the dorsal region of Sprague-Dawley rats (10 animals for each concentration), in a volume of 0.05 mL using a very fine syringe.
The solution was administered intra-implantally in the dorsal region of Sprague-Dawley rats (10 animals for each concentration), in a volume of 0.05 mL using a very fine syringe.
After the intra-implant injections, the Plantar thermal hyperalgesia test was conducted. In particular: after 1, 3, 5 and 24 h the thermal sensitivity was determined using the Hargreaves apparatus (HA).
Hypersensitivity to heat was assessed using the rat plantar test apparatus (Ugo Basile, Italy) following the method described by Hargreaves et al. (1988). The plantar test uses three perspex boxes (22×19×25 cm) placed on an elevated glass table. The rats were housed in each box, so that 3 rats could be tested simultaneously in a single apparatus and allowed to acclimate for at least 10 minutes. A mobile infrared heat source was applied to the plantar surface of the hind legs.
Paw retraction latency was defined as the time (in seconds) it took the rat to remove the hind leg from the heat source. The heat source was calibrated to an intensity of 15 IR and a cut-off of 50 sec was applied to prevent tissue damage. The test was performed at 1, 3, 5 and 24 hours after the injection. Each paw was tested twice per session (raw data represents the average of 2 measurements performed at an interval of approximately 5 minutes).

Substance | EC50 [1] [nM] | percentage of animals with a degree of depigmentation less than or equal to 2 [2] [%] | percentage of animals with a moderate degree of depigmentation equal to 3 [2] [%] | percentage of animals with a severe degree of depigmentation greater than or equal to 4 [2] [%] | Nerve endings density (mm/mm^3) NF200 (sensory nerve fibers; large diameter fibers) | Nerve termination density unit of measurement (mm/mm^3) TRPV1 (sensory nerve fibers; small diameter peripheral sensory fibers) | hyperalgesic activity compared to the saline group (paw retraction latency) (Sprague-Dawley rats; 10 μg/50 μL) | hyperalgesic activity compared to the saline group (paw retraction latency) (Sprague-Dawley rats; 20 μg/50 μL) | hyperalgesic effect compared with NGF 1-14 at 10 and 20 μg/50 μL (Sprague-Dawley rats; 10 μg/50 μL, P<0.05 at 1-3-24 h and P<0.01 at 5 h)
NGF: Nerve growth factor, whole human NGF protein used as a control | 0.06 | 37.5 | 37.5 | 25 | 350 + 50 mm/mm^3 | 200 + 36 mm/mm^3 | – | – | –
SSSHPIFHRGEFSV [NGF 1-14, SSSHPIFHRGEFSV] | 1200 | – | – | – | – | – | showed hyperalgesic activity | showed hyperalgesic activity | –
rh-NGF: rh-NGF protein, whole protein NGF comparator in the tolerability test | – | – | – | – | – | – | showed hyperalgesic activity | – | more pronounced significant hyperalgesic effect
